The test concerns the target T1, HsERK8 (Homo sapiens, UniProt Q8TD08).
T1 construct: plasmid pGEX2T expressing the full-length hERK8 coding region; made in house; host or cells: Escherichia coli Rosetta 2 (DE3)
T1 sequence (Q8TD08 1-544): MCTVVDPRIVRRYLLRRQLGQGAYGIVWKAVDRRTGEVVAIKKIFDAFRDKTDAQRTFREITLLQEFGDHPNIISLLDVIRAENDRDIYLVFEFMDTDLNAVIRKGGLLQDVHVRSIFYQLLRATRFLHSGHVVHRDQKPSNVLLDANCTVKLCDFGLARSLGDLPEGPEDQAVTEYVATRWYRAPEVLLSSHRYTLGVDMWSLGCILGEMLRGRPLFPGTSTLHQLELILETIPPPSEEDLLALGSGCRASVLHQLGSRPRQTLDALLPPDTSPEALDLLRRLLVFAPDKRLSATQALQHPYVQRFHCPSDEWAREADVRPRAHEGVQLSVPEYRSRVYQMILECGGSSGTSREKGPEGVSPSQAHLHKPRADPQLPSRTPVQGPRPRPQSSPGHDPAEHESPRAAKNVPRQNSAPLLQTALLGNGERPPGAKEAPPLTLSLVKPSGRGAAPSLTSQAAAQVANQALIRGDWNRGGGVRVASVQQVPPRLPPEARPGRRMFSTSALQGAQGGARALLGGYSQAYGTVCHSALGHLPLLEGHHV
Put plainly: Luciferase-based kinase inhibition assay (ATP luminescence), GST-tagged HsERK8 with MBP substrate. Type of test: biochemical. As to conditions: for raw luminescence, HsERK8: sheet Kinase_glo_080924_IFPS (2), replicate wells, listed as Ida. On the procedure:
Escherichia coli strain Rosetta 2 (DE3) (Cat# 71397, MilliporeSigma, Burlington, MA) was transformed with the plasmid pGEX2T expressing the full-length hERK8 coding region or pGSTAg expressing the full-length TbERK8 coding region. One liter of Terrific Broth media containing 100 μg/ml Ampicillin and 30 μg/ml chloramphenicol in 2 L baffled flasks was inoculated with 25 mL from an overnight culture of Rosetta 2 strains harboring either the pGEX2T-hERK8 or pGSTAg-TbERK8 plasmid. Two baffled flasks were inoculated with each overnight strain and incubated and shaken at 175 RPM in a New Brunswick Innova 44R Incubator Shaker (Fischer Scientific, Pittsburgh, PA) at 37 °C until the cultures reached an O.D.600 of 0.94. Once the cultures in the flask reached the target O.D.600, the flasks were cooled to 4 °C in an ice water bath. The cooled cultures were induced by adding isopropyl β-D-1-thiogalactopyranoside (IPTG) to a final concentration of 0.1 mM and shaken at 16 °C for 16 hours at 175 RPM in a New Brunswick Innova 44R Incubator Shaker (Fischer Scientific, Pittsburgh, PA). On the next day, the cultures were pelleted by centrifugation at 9000 xg in a JLA 10.500 rotor (Beckman Coulter; Brea, CA), and the media was decanted. The pellet was flash-frozen in liquid nitrogen and then thawed on ice. The thawed pellet was resuspended in lysis buffer (25 mM Tris, 75 mM NaCl, 0.5% TritonX-100 and 0.5% Nonidet P-40, 1 mM phenylmethanesulfonyl fluoride, 1 mM benzamidine⋅HCl) and lysed using a microfluidizer M-110P from Microfluidics (Westwood, MA). The crude lysates were clarified by centrifugation at 140,000 xg in a 45Ti rotor (Beckman Coulter, Brea, CA) for 30 min at 4°C. The clarified lysate was loaded by gravity to a 3 mL glutathione agarose resin column (Cat# G-250–10, GOLDBIO, St. Louis, MO) formed in a 1.5 × 20 cm glass chromatography column (Cat# 7371522, Bio-Rad, Hercules, CA). The column was washed with 30 mL of PBS (pH 7.4) containing 1 mM DTT. Elution buffer (50 mM Tris buffer pH 8.0 containing 10 mM reduced glutathione and 1 mM DTT was added to the washed column), and 1 mL fractions were collected by gravity and examined by SDS-PAGE stained by Coomassie dye. Peak fractions pooled from the elution were dialyzed (4x 1:500 dilutions) in kinase buffer (30 mM Tris, pH 7.4, 10 mM MgCl2, 1 mM DTT, 5% glycerol).
We performed kinase assays in buffer K (30 mM Tris pH 7.4, 10 mM MgCl2, 1 mM DTT, 5% glycerol, 50 μM ATP, and 0.1 mg/mL BSA) at 30°C for 30 min in 30 μL reactions. GST-tagged HsERK8 and TbERK8 were tested using myelin basic protein (MBP) (Cat# 13–110, Millipore, Darmstadt, Germany) as the substrate at increasing concentrations to determine the optimal activity for the assay. ATP consumption was determined by adding equal volumes of the kinase assay reagent (Promega, Cat# V5601, Madison, WI) following the manufacturer’s protocol. Luminescence was measured using the microplate reader (SpectraMax L, Molecular Devices, Sunnyvale, CA).
These compounds were screened for kinase inhibition utilizing a luciferase-based assay. Briefly, the kinases were tested using MBP as the substrate at a 14-fold molar excess in 384-well flat-bottom white plates (BRANDTECH Scientific, Cat# 781681, Essex, CT). These compounds were tested at concentrations ranging from […] to 150 nM. The kinases plus MBP substrate reactions were incubated with each inhibitor for 30 minutes at 30°C. Equal volumes of kinase assay mix Promega (Cat# V5601, Madison, WI) were added to the kinase/inhibitor reaction after 30 minutes, following the manufacturer’s protocol. ATP luminescence was measured using a microplate reader (SpectraMax L, Molecular Devices, Sunnyvale, CA). IC50 values were calculated from assays done in triplicate by fitting the data using Prism 8.1.1 (GraphPad).

Values joined by “and” are separate entries in the source; they are usually repeats but may differ in a detail not shown here. Equal values may be shown once.

As to `CC(=O)[C@]1(O)Cc2c(O)c3c(c(O)c2[C@@H](O[C@H]2C[C@H](N)[C@H](O)[C@H](C)O2)C1)C(=O)c1ccccc1C3=O` [Idarubicin], the “raw luminescence, HsERK8” value was 5033.01 RLU and 5464.22 RLU and 4680.41 RLU (0.00015 mM compound); 4929.7 RLU and 5104.88 RLU and 5152.04 RLU (0.00061 mM compound); 4819.65 RLU and 4756.77 RLU and 4179.58 RLU (0.00244 mM compound); 4606.3 RLU and 4691.64 RLU and 4170.6 RLU (0.00977 mM compound); 4799.44 RLU and 4835.38 RLU and 4925.21 RLU (0.03906 mM compound); 4702.87 RLU and 5131.83 RLU and 4550.15 RLU (0.15625 mM compound). Further, the “raw luminescence, HsERK8” value by setting is: (0.62500 mM compound) 4750.03 RLU and 4873.56 RLU and 4527.69 RLU; (2.50000 mM compound) 3723.67 RLU and 3768.58 RLU and 3368.82 RLU; (10.00000 mM compound, signal = ATP left) 988.186 RLU and 1334.05 RLU and 1307.1 RLU. For the same compound, the “inhibitory effect on kinase activity of HsERK8” value (concentrations below 4.0 x10^-5 M (above this the red compound blocked luminescence)) is reported as “no detectible (n/d) inhibitory effect”.

The values are drawn from paper PMC12445744, “Molecular docking to homology models of human and Trypanosoma brucei ERK8 that identified ortholog-specific inhibitors” (PLOS Neglected Tropical Diseases, 2025).
